The text below walks through data of EP0603755A2, “Cephalosporin salts and processes for their preparation” (HOECHST AKTIENGESELLSCHAFT, priority 1992, dated 1994).

Data set [1] in a line: Qualitative solubility of the salts (observed on crystallisation from water). Particulars: in water, partly relative to the salt of the other Articain enantiomer.
Data set [2] is described as follows: Pharmacokinetics after intramuscular administration; antibiotic content in blood/serum by agar diffusion test. It is filed as in vivo, Hund. An excerpt: Zur Bestimmung der pharmakokinetischen Eigenschaften der erfindungsgemäßen Cephalosporin-Articainsalze wurden unter […] Untersuchungen an Mäusen und Hunden durchgeführt. Die […] und die korrespondierenden Alkalisalze der Cephalosporine wurden in therapeutisch üblichen Dosierungen intramuskulär verabreicht. Zu festgelegten Zeitpunkten nach der Injektion des Antibiotikums wurden den Versuchstieren Blutproben entnommen und der Antibiotika-Gehalt im Blut bzw. Serum mit Hilfe des Agardiffusionstestes bestimmt. Die pharmakokinetischen […] Computerprogramms ermittelt.
A general note: In agar diffusion tests the substance spreads into inoculated agar from a disc or well.

`CCCNC(C)C(=O)Nc1c(C)csc1C(=O)OC.CON=C(C(=O)NC1C(=O)N2C(C(=O)O)=C(COC(N)=O)CSC12)c1ccco1` (single isomer, unassigned; (+)) [(+) Articain-Cefuroximsalz]: the Löslichkeit entry in data set [1] is on record as “schwerlösliche”.

For the compound `CCCNC(C)C(=O)Nc1c(C)csc1C(=O)OC.CON=C(C(=O)NC1C(=O)N2C(C(=O)O)=C(COC(C)=O)CSC12)c1csc(N)n1` (single isomer, unassigned; (+)) [(+)-Articain-Cefotaxim, ( +)-Articain-Cefotaximsalz], in data set [2] (dog, in vivo, im), the Halbwertszeit is 4,1 Stunden.

Regarding `CCCNC(C)C(=O)Nc1c(C)csc1C(=O)OC.CON=C(C(=O)NC1C(=O)N2C(C(=O)O)=CCSC12)c1csc(N)n1` (single isomer, unassigned; (-)) [(-)-Articain-Ceftizoximsalz], in data set [1], the Löslichkeit entry is “leichter löslich in Wasser”.

Take `CCCCOC(=O)c1scc(C)c1NC(=O)C(C)NCCC.CO/N=C(\C(=O)N[C@@H]1C(=O)N2C(C(=O)O)=C(COC(C)=O)CS[C@H]12)c1csc(N)n1` [Beispiel 10, Cefotaximsalz von (+ )n-Butyl 4-methyl-3(2-n-propylaminopropionamido) thiophen-2-carboxylat]: the Halbwertszeit in data set [2] (Hund, intramuscular application, blood/serum level by agar diffusion test) is given as 6,6 Stunden.

`CO/N=C(\C(=O)N[C@@H]1C(=O)N2C(C(=O)O)=C(COC(C)=O)CS[C@H]12)c1csc(N)n1` [Cefotaxim, reference compound]: the half-life in data set [2] (dog, im, Hund, intramuscular application, blood/serum level by agar diffusion test, read-out: Halbwertszeit (converted)) was 48 min.
